Several values for one entry are separate records, joined by “and”; a condition that tells them apart may be missing. Equal entries are not always repeated.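 Grown in 96-well plates, cells were treated for 48 hours with each compound at five concentrations. Insufficient inhibition: endpoint recorded as highest concentration tested. GI50 is the concentration that inhibits growth by half. TGI is the concentration that stops growth completely.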
Tests used:
Assay in all cases: NCI tumour cell line growth inhibition, 48 h
[1] = test system: UACC-257 melanoma
[2] = test system: SK-MEL-28 melanoma
[3] = test system: PC-3 prostate
[4] = test system: SNB-19 CNS
[5] = test system: SF-268 CNS
[6] = test system: NCI-H226 lung
[7] = test system: K-562 leukemia
[8] = test system: HCT-116 colon
[9] = test system: EKVX NSCLC
[10] = test system: RXF 393 renal

SMILES	TGI [1]	TGI [2]	TGI [3] [µM]	TGI [4] [µM]	TGI [5]	TGI [6] [µM]	TGI [7] [µM]	TGI [8] [µM]	TGI [9]	TGI [10]	GI50 [1]	GI50 [2]	GI50 [3]	GI50 [4] [µM]	GI50 [5] [µM]	GI50 [6] [µM]	GI50 [7] [µM]	GI50 [8]	GI50 [9]	GI50 [10] [µM]
CC(Oc1ccccc1)C(=O)NNC(=O)OC(C)(C)C (centres undefined)	> 100 µM	> 100 µM	> 100	> 100	> 100 µM	> 100	> 100	> 100	> 100 µM	> 100 µM										
O=C1/C(=C/c2ccc(O)cc2)COc2ccc(O)c(O)c21	> 100 µM	64.6 µM	13	> 100	> 100 µM	34.8	> 100	3.41	> 100 µM	3.82 µM	4.5 µM	3.81 µM	2.48 µM	3.74	2.72	8.37	0.649	1.76 µM	2.91 µM	1.55
Brc1cccc(C2ON=C(c3ccccc3)N2C23CC4CC(CC(C4)C2)C3)c1 (centres undefined)	> 10 µM	> 10 µM	> 10	> 10	> 10 µM	> 10	> 10	> 10	> 10 µM	> 10 µM										
O=C1C(c2c(O)[nH]c3ccc(Br)cc23)=Nc2ccc(Br)cc21	> 100 µM	> 100 µM	> 100	92.4	> 100 µM	> 100	> 100	34.6	> 100 µM	40.7 µM										
Cc1nc2sc(C(=O)c3ccc(Cl)cc3)c(N)c2c(-c2ccccc2Cl)c1C(=O)Nc1ccccc1	61.8 µM	27.4 µM	47	71.2	> 94.9 µM	62.1	> 51.8	26.8	59 µM	31.3 µM										
COc1cc(OC)c2c(c1)OC(c1cccnc1)C(c1ccccc1)C2=O (centres undefined)	> 100 µM	> 100 µM	> 100	> 100	> 100 µM	> 100	> 100	> 100	> 100 µM	> 100 µM										
c1ccc2c(c1)cc1n2CCc2c-1[nH]c1ccccc21	> 10 µM	> 10 µM	> 10	> 10	> 10 µM	> 10	> 10	> 10	> 10 µM	> 10 µM										
CC1(C)OC2OC(C(COS(=O)(=O)C(F)(F)F)N=[N+]=[N-])C(OC(=O)c3ccccc3)C2O1 (centres undefined)	> 100 µM	> 100 µM	> 100	> 100	> 100 µM	> 100	> 100	> 100	> 100 µM	> 100 µM										
Cc1ccc2c(c1)nc1n2C(N)=Nc2ccccc2S1	> 100 µM	> 100 µM	> 100	> 100	> 100 µM	> 100	> 100	> 100	> 100 µM	> 100 µM										
CC(=O)OCC1OC(n2c(S)c(C#N)c(-c3ccccc3)c(C#N)c2=O)C(OC(C)=O)C(OC(C)=O)C1OC(C)=O (centres undefined)	> 100 µM and 81.4 µM	> 100 µM and 62.8 µM	> 100	> 100	> 100 µM and 61.7 µM	> 100	> 100	> 100	> 100 µM and 76.1 µM	59.4 µM and 59.1 µM	> 100 µM and 36.2 µM	> 100 µM and 25.7 µM	> 100 µM and 43.5 µM					> 100 µM and 39.3 µM	> 100 µM and 25.1 µM	
CN(CCNC(=O)c1c[nH]c2c1Cc1ccccc1-2)CCNC(=O)c1c[nH]c2c1Cc1ccccc1-2	> 100 µM	> 100 µM	41.9	> 100	> 100 µM	71.9	> 100	> 100	> 100 µM	> 100 µM										
C(#CP(c1ccccc1)c1ccccc1)P(C#CP(c1ccccc1)c1ccccc1)c1ccccc1	> 100 µM	> 100 µM	> 100	> 100	> 100 µM	> 100	> 100	> 100	> 100 µM	> 100 µM										
OC1(c2ccc(Cl)cc2)c2ccccc2-c2nc3ccccc3n21 (centres undefined)	> 100 µM	> 100 µM	> 100	97.3	> 100 µM	> 100	> 100	> 100	> 100 µM	55 µM										
CC1=CP(=O)(c2c(C(C)C)cc(C(C)C)cc2C(C)C)CCC1Cl (centres undefined)	24.9 µM	35.1 µM	28	30.3	35.4 µM	35.1	35.6	38.4	32.6 µM	31.5 µM										
COc1ccccc1C1(c2c(OC)c(=O)c2=O)SCCCS1	> 100 µM	> 100 µM	> 100	> 100	> 100 µM	> 100	> 100	> 100	> 100 µM	> 100 µM										
CCCCCCCCCCCCCC[n+]1ccc(C)cc1	2.48 µM	3.09 µM	2.63	4.02	1.7 µM	5.59	3.73	2.01	1.42 µM	2.35 µM	0.763 µM	1.44 µM	0.455 µM	1.46	0.447	0.915	0.309	0.403 µM	0.296 µM	1.05
CC(C)=CC[C@]12CCN(C)[C@H]1N(S(=O)(=O)c1ccccc1)c1ccccc12	> 89.6 µM	> 100 µM	98.6	> 100	> 100 µM	> 100	> 100	> 100	> 63.9 µM	> 71.7 µM										
Nc1nc(Cl)c(Cl)c(NCC2(O)CCC2)n1	> 100 µM	> 100 µM	> 100	> 100	> 100 µM	> 100	> 100	> 100	> 100 µM	> 100 µM										
COc1ccc(-c2c(-c3ccccc3)c(C)nc3nc(SC)nc(SC)c23)cc1OC	> 100 µM	> 100 µM	41.7	> 100	> 100 µM	82.9	32	32.2	> 100 µM	> 100 µM										
Cc1cc2nc3c(C#N)c4c(c(-c5ccc(Cl)cc5)n3c2cc1C)CCC4	41.4 µM	50.3 µM	97.7	37.8	57.9 µM	41	53.6	32.7	54.4 µM	> 100 µM										

SMILES	TGI [1]	TGI [2]	TGI [3] [µM]	TGI [4] [µM]	TGI [5]	TGI [6] [µM]	TGI [7] [µM]	TGI [8] [µM]	TGI [9]	TGI [10]	GI50 [1]	GI50 [2]	GI50 [3]	GI50 [4] [µM]	GI50 [5] [µM]	GI50 [6] [µM]	GI50 [7] [µM]	GI50 [8]	GI50 [9]	GI50 [10] [µM]
COc1cc2c(cc1OC)C(=O)/C(=C/c1cc(C)cc(C)c1)C2	> 100 µM	> 100 µM	24.2	> 89.1	> 100 µM	0.617	> 38	11.6	> 100 µM	0.604 µM										
COC(=O)C1OC(O[C@H]2CC[C@]3(C)[C@H]4CC=C5[C@@H]6CC(C)(C)CC[C@]6(C(=O)OC6OCC(O)C(O)C6OC6OC(C)C(OC7OCC(O)C(O)C7O)C(OC7OCC(O)(CO)C7O)C6O)[C@H](O)C[C@@]5(C)[C@]4(C)CC[C@H]3C2(C)C)C(O)C(O)C1O (some centres undefined)	11.5 µM	4.69 µM	14.5	19	24 µM	15.5	> 100	13.5	8.21 µM	24.6 µM										
CCOC(=O)/C=C(\C(=O)OCC)n1cc(C)c(=O)n(Cc2cnnn2COCCOC(C)=O)c1=O	26.3 µM	31.5 µM	> 59.2	> 61.8	38.5 µM	35	19.2	22.2	24.6 µM	13.2 µM										
C/C(=N\O)c1cccc[n+]1Cc1ccccc1	> 100 µM	> 100 µM	> 100	> 100	> 100 µM	> 100	> 100	> 100	> 100 µM	> 100 µM										
O=C(SCc1cccc2ccccc12)c1ccc(Cl)cc1	> 100 µM	> 100 µM	> 100	> 100	> 100 µM	> 100	> 100	> 100	> 100 µM	> 100 µM										
OC1COC2CC(Nc3ccccn3)OC12 (centres undefined)	> 100 µM	> 100 µM	> 100	> 100	> 100 µM	> 100	> 100	> 100	> 100 µM	> 100 µM										
Cn1cc(S(=O)(=O)NC(=O)Nc2ccc(Cl)cc2)c(=O)c2ccc(F)cc21	> 100 µM	> 100 µM	> 100	> 100	> 100 µM	> 100	> 100	> 100	> 100 µM	> 100 µM										
C[C@]12CC(c3ccccc3O1)C(C(=O)Nc1nc(C34CC5CC(CC(C5)C3)C4)cs1)C(=O)N2 (some centres undefined)	> 100 µM	> 100 µM	> 100	> 100	> 100 µM	> 100	> 100	> 100	> 100 µM	> 100 µM										
CC(=O)OC1[C@H](OC(C)=O)C2=C(C)[C@@H](OC(C)=O)C[C@@]2(C(C)(C)O)[C@@H](OC(C)=O)[C@H]2[C@@]1(C)[C@@H](OC(C)=O)CC(OC(C)=O)[C@]21CO1 (some centres undefined)	> 100 µM	> 100 µM	> 100	> 100	> 100 µM	> 100	> 100	> 100	> 100 µM	> 100 µM										
O=C(/C(=C\I)c1ccccc1)c1ccccc1	15.8 µM	5.88 µM	7.38	23.1	> 46.2 µM	53.5	26.7	26.2	32.3 µM	11.7 µM										
COc1ccccc1C(=O)NCC1CCCN2CCCCC12 (centres undefined)	> 100 µM	> 100 µM	> 100	> 100	> 100 µM	> 100	> 100	> 100	> 100 µM	> 100 µM										
CC(=O)OCC1OC(n2c(Br)nc3c2c(=O)n(C)c(=O)n3C)C(OC(C)=O)C1OC(C)=O (centres undefined)	> 100 µM	> 100 µM	> 100	> 100	> 100 µM	> 100	> 100	> 100	> 100 µM	> 100 µM										
N/C1=C/C(=O)NC(=O)c2c(c3ccccc3oc2=O)C1	> 100 µM	> 100 µM	> 100	> 100	> 100 µM	> 100	> 100	> 100	> 100 µM	> 100 µM										
C(=Nc1ccc(-c2nc3ccccc3s2)cc1)c1ccc[nH]1	31.2 µM	42.5 µM	31.5	> 100	52.5 µM	35.6	66.6	29.9	45.4 µM	31.3 µM										
Cc1cccc(CC(Cc2ccc(C)cc2C(=O)O)C(=O)O)c1 (centres undefined)	> 100 µM	> 100 µM	> 100	> 100	> 100 µM	> 100	> 100	> 100	> 100 µM	> 100 µM										
CCOC(=O)c1c(SC(=O)c2ccc(OC)cc2)n(-c2ccccc2)c(=S)n(-c2ccccc2)c1=O	> 100 µM	> 100 µM	> 100	> 100	43.4 µM	> 100	> 100	47.9	> 100 µM	> 100 µM										
O=C(O)c1nc2ccc(C(F)(F)F)cc2nc1Nc1ccc(F)cc1	78.1 µM	> 100 µM	48		48.1 µM	57	43.4	35	73.9 µM	31.5 µM										
CC(C)=CC(=O)c1[nH]c2ccccc2c1CC(=O)NCCc1cncn1C	> 100 µM	> 100 µM	> 100	> 100	> 100 µM	> 100	> 100	> 100	83.4 µM	83.4 µM										
O=C(Nc1ccc(S(=O)(=O)/N=c2\ncccn2C(=O)C(C(F)(F)F)C(F)(F)F)cc1)C(C(F)(F)F)C(F)(F)F	> 100 µM	> 100 µM	> 100	> 100	> 100 µM	> 100	> 100	> 100	> 100 µM	> 100 µM										

— PubChem BioAssay (NCI)
